# Data reported in patent publication US20210386068A1, “COMPOSITIONS COMPRISING PYRIDINE CARBOXYLATE HERBICIDES AND VERY LONG CHAIN FATTY ACID (VLCFA) SYNTHESIS INHIBITOR HERBICIDES” (priority 2018, published 2021).
# “And” between values parts separate entries of the source, which are not always exact repeats. Equal values may be shown once.
# Legend:
# Type in all cases: in vivo
# [1] = test system: Brassica napus (spring rape, BRSNN); assay: Greenhouse postemergence herbicidal effect, visual injury 20-22 d after spraying, spring rape (BRSNN)
# Description: (§1) Seeds of the desired test plant species were planted in a 90:10% v/v (volume/volume) mixture of PRO-MIX® BX (Premier Tech Horticulture, Quakertown, Pa., USA) and PROFILE® GREENS GRADE™ (Profile Products LLC, Buffalo Grove, Ill., USA) planting mixture, which typically has a pH of 5.2 to 6.2 and an organic matter content of at least 50 percent, in plastic pots with a surface area of 103.2 square centimeters (cm^2). In some aspects, to ensure good germination and healthy plants, a fungicide treatment and/or other chemical or physical treatment was applied. The plants were grown for 7-36 days (d) in a greenhouse with an approximate 14-hour (h) photoperiod which was maintained at about 23° C. during the day and 22° C. during the night. Nutrients and water were added on a regular basis and supplemental lighting was provided with overhead metal halide 1000-Watt lamps as necessary. The plants were employed for testing when they reached the second or third true leaf stage.
# (§2) Emulsifiable concentrates of each of each pyridine carboxylate herbicide (Compound A or Compound B) were prepared at 100 grams acid equivalent per liter (g ae/L). The emulsifiable concentrates also included a safener, cloquintocet-mexyl, at 120 grams active ingredient per liter (g ai/L). An aliquot of each emulsifiable concentrate was placed in a 25 mL glass vial and diluted with an aqueous mixture of 1.25% (v/v) ACTIROB® B esterified rapeseed oil (Bayer Crop Science, Research Triangle Park, N.C., USA) or MSO® Concentrate with LECI-TECH® methylated soybean oil (Loveland Products, Loveland, Colo., USA) to obtain concentrated stock solutions at the highest application rate for each herbicide, based upon a 12 milliliter (mL) application volume at a rate of 187 liters per hectare (L/ha). The concentrated stock solutions were further diluted with an aqueous mixture of 1.25% v/v ACTIROB® B or MSO® Concentrate with LECI-TECH® to obtain stock solutions at reduced application rates for each herbicide. Spray solutions of the herbicide combinations (Compound A or Compound B plus VLCFA synthesis inhibitor herbicide) were prepared by adding weighed amounts or aliquots of the VLCFA synthesis inhibitor herbicide to the stock solutions of Compound A or Compound B to form 12-mL spray solutions in two-way combinations.
# (§3) The spray solutions were applied to the plant material with an overhead Mandel track sprayer equipped with 8002E nozzles calibrated to deliver 187 L/ha over an application area of 0.503 square meters (m^2) at a spray height of 18 inches ([…] (cm)) above the average plant canopy. Control plants were sprayed in the same manner with the solvent blank. All pyridine carboxylate herbicide (component a) application rates are given as “g ae/ha” and all VLCFA synthesis inhibitor herbicide (component b) application rates are given as “g ai/ha.”
# (§4) The treated plants and control plants were placed in a greenhouse as described above and watered by sub-irrigation to prevent wash-off of the test compounds. After 20-22 d, the condition of the test plants as compared with that of the control plants was determined visually and scored on a scale of 0 to 100 percent where 0 corresponds to no injury and 100 corresponds to complete kill.
# [2] = test system: Matricaria discoidea (pineapple weed, MATMT); assay: Greenhouse postemergence herbicidal effect, visual injury 20-22 d after spraying, pineapple weed (MATMT)
# Description: as §1, §2, §3, §4
# [3] = test system: Kochia scoparia (kochia, KCHSC); assay: Greenhouse postemergence herbicidal effect, visual injury 20-22 d after spraying, kochia (KCHSC); details: for % visual injury Obs: KCHSC
# Description: as §1, §2, §3, §4
# [4] = test system: Triticum aestivum (spring wheat, TRZAS); assay: Greenhouse postemergence crop phytotoxicity, visual injury 20-22 d after spraying, spring wheat (TRZAS); details: for % visual injury Obs: TRZAS
# Description: as §1, §2, §3, §4
# [5] = test system: Veronica hederifolia (ivy-leaved speedwell, VERHE); assay: Greenhouse postemergence herbicidal effect, visual injury 20-22 d after spraying, ivy-leaved speedwell (VERHE)
# Description: as §1, §2, §3, §4
# [6] = test system: Lamium purpureum (purple deadnettle, LAMPU); assay: Greenhouse postemergence herbicidal effect, visual injury 20-22 d after spraying, purple deadnettle (LAMPU)
# Description: as §1, §2, §3, §4
# [7] = test system: Papaver rhoeas (common poppy, PAPRH); assay: Greenhouse postemergence herbicidal effect, visual injury 20-22 d after spraying, common poppy (PAPRH)
# Description: as §1, §2, §3, §4
# [8] = test system: Hordeum vulgare (spring barley, HORVS); assay: Greenhouse postemergence crop phytotoxicity, visual injury 20-22 d after spraying, spring barley (HORVS); details: for % visual injury Obs: HORVS
# Description: as §1, §2, §3, §4
# [9] = test system: Viola tricolor (wild pansy, VIOTR); assay: Greenhouse postemergence herbicidal effect, visual injury 20-22 d after spraying, wild pansy (VIOTR); details: for % visual injury Obs: VIOTR
# Description: as §1, §2, §3, §4
# [10] = test system: Amaranthus retroflexus (pigweed, AMARE); assay: Greenhouse postemergence herbicidal effect, visual injury 20-22 d after spraying, pigweed (AMARE)
# Description: as §1, §2, §3, §4
# [11] = test system: Cyanus segetum (cornflower, CENCY); assay: Greenhouse postemergence herbicidal effect, visual injury 20-22 d after spraying, cornflower (CENCY)
# Description: as §1, §2, §3, §4
# [12] = test system: Salsola kali (Russian thistle, SASKR); assay: Greenhouse postemergence herbicidal effect, visual injury 20-22 d after spraying, Russian thistle (SASKR); details: for % visual injury Obs: SASKR
# Description: as §1, §2, §3, §4
# [13] = test system: Abutilon theophrasti (velvetleaf, ABUTH); assay: Greenhouse postemergence herbicidal effect, visual injury 20-22 d after spraying, velvetleaf (ABUTH)
# Description: as §1
# Emulsifiable concentrates of each of each pyridine carboxylate herbicide (Compound A or Compound B) were prepared at 100 grams acid equivalent per liter (g ae/L). The emulsifiable concentrates also included a safener, cloquintocet-mexyl, at 120 grams active ingredient per liter (g ai/L). […]
# as §4
# [14] = test system: Anthemis arvensis (corn chamomile, ANTAR); assay: Greenhouse postemergence herbicidal effect, visual injury 20-22 d after spraying, corn chamomile (ANTAR)
# Description: as §1, §2, §3, §4
# [15] = test system: Veronica persica (Persian speedwell, VERPE); assay: Greenhouse postemergence herbicidal effect, visual injury 20-22 d after spraying, Persian speedwell (VERPE)
# Description: as §1, §2, §3, §4
# [16] = test system: Capsella bursa-pastoris (shepherd's purse, CAPBP); assay: Greenhouse postemergence herbicidal effect, visual injury 20-22 d after spraying, shepherd's purse (CAPBP)
# Description: as §1, §2, §3, §4
smiles,measurement,setting,value
"N#CCOC(=O)c1nc(-c2ccc3cc[nH]c3c2F)c(F)c(N)c1Cl [Compound A, cyanomethyl 4-amino-3-chloro-5-fluoro-6-(7-fluoro-1H-indol-6-yl)pyridine-2-carboxylate]",% visual injury Obs,[1]; Compound A 7.5 g/ha alone,55%
same,% visual injury Obs,[1]; Compound A 10 g/ha alone,60% and 70%
same,% visual injury MATMT Obs,[2]; Compound A 7.5 g/ha,20%
same,% visual injury MATMT Obs,[2]; Compound A 10 g/ha,20%
same,% visual injury MATMT Obs,[2]; Compound A 15 g/ha,63%
same,% visual injury KCHSC Obs,[3]; Compound A 7.5 g/ha,63%
same,% visual injury KCHSC Obs,[3]; Compound A 10 g/ha,65%
same,% visual injury KCHSC Obs,[3]; Compound A 15 g/ha,63%
same,% visual injury Obs,[3]; Compound A 7.5 g/ha alone,63% and 50% and 70%
same,% visual injury Obs,[3]; Compound A 10 g/ha alone,63% and 58% and 55% and 70%
same,% visual injury TRZAS Obs,[4]; Compound A 7.5 g/ha,0%
same,% visual injury TRZAS Obs,[4]; Compound A 10 g/ha,0%
same,% visual injury TRZAS Obs,[4]; Compound A 15 g/ha,0%
same,% visual injury Obs,[4]; Compound A 7.5 g/ha alone,0%
same,% visual injury Obs,[4]; Compound A 10 g/ha alone,0%
same,% visual injury VERHE Obs,[5]; Compound A 7.5 g/ha,68%
same,% visual injury VERHE Obs,[5]; Compound A 10 g/ha,73%
same,% visual injury VERHE Obs,[5]; Compound A 15 g/ha,75%
same,% visual injury LAMPU Obs,[6]; Compound A 7.5 g/ha,68%
same,% visual injury LAMPU Obs,[6]; Compound A 10 g/ha,73%
same,% visual injury LAMPU Obs,[6]; Compound A 15 g/ha,73%
same,% visual injury PAPRH Obs,[7]; Compound A 7.5 g/ha,100%
same,% visual injury PAPRH Obs,[7]; Compound A 10 g/ha,99%
same,% visual injury PAPRH Obs,[7]; Compound A 15 g/ha,100%
same,% visual injury HORVS Obs,[8]; Compound A 7.5 g/ha,0%
same,% visual injury HORVS Obs,[8]; Compound A 10 g/ha,0%
same,% visual injury HORVS Obs,[8]; Compound A 15 g/ha,0%
same,% visual injury Obs,[8]; Compound A 7.5 g/ha alone,0% and 8%
same,% visual injury Obs,[8]; Compound A 10 g/ha alone,0%
same,% visual injury VIOTR Obs,[9]; Compound A 7.5 g/ha,13%
same,% visual injury VIOTR Obs,[9]; Compound A 10 g/ha,15%
same,% visual injury VIOTR Obs,[9]; Compound A 15 g/ha,15%
same,% visual injury Obs,[9]; Compound A 7.5 g/ha alone,3%
same,% visual injury Obs,[9]; Compound A 10 g/ha alone,3%
same,% visual injury Obs,[10]; Compound A 7.5 g/ha alone,78% and 80% and 70% and 90%
same,% visual injury Obs,[10]; Compound A 10 g/ha alone,73% and 85% and 98%
same,% visual injury CENCY Obs,[11]; Compound A 7.5 g/ha,75%
same,% visual injury CENCY Obs,[11]; Compound A 10 g/ha,78%
same,% visual injury CENCY Obs,[11]; Compound A 15 g/ha,80%
same,% visual injury SASKR Obs,[12]; Compound A 7.5 g/ha,50%
same,% visual injury SASKR Obs,[12]; Compound A 10 g/ha,60%
same,% visual injury SASKR Obs,[12]; Compound A 15 g/ha,63%
same,% visual injury Obs,[12]; Compound A 7.5 g/ha alone,60% and 45% and 38%
same,% visual injury Obs,[12]; Compound A 10 g/ha alone,63% and 60%
same,% visual injury Obs,[13]; Compound A 7.5 g/ha alone,40%
same,% visual injury Obs,[13]; Compound A 10 g/ha alone,48%
same,% visual injury ANTAR Obs,[14]; Compound A 7.5 g/ha,68%
same,% visual injury ANTAR Obs,[14]; Compound A 10 g/ha,70%
same,% visual injury ANTAR Obs,[14]; Compound A 15 g/ha,88%
same,% visual injury VERVE Obs,[15]; Compound A 7.5 g/ha,78%
same,% visual injury VERVE Obs,[15]; Compound A 10 g/ha,90%
same,% visual injury VERVE Obs,[15]; Compound A 15 g/ha,93%
same,% visual injury CAPBP Obs,[16]; Compound A 7.5 g/ha,45%
same,% visual injury CAPBP Obs,[16]; Compound A 10 g/ha,55%
same,% visual injury CAPBP Obs,[16]; Compound A 15 g/ha,55%
